Format in all cases: cell-based
The subject of assay [1] is HCV 1a RLuc cells (dicistronic genotype 1a H77 replicon, RLuc reporter). Briefly: microbe, parasite or virus in culture. As to conditions: Hepatitis C virus, genotype 1a H77 RLuc replicon; read-out: 1a. Put shortly:
(§1)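 Replicon cells stably carrying the listed RLuc-encoding dicistronic replicons were seeded and treated with DMSO serial dilutions of compound (10 mM stocks) diluted into culture medium. After 72 h, cells were lysed and Renilla luciferase activity measured. EC50 was derived by non-linear regression.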

Assay [2] deals with HCV 1b RLuc cells (dicistronic genotype 1b Con1 replicon, RLuc reporter). Description: microbe, parasite or virus in culture. As to conditions: Hepatitis C virus, read-out: 1b (nM). A digest of the protocol: as §1
Assay [3] relates to HCV 2a JFH-1 Rluc cells (dicistronic genotype 2a JFH-1 replicon, RLuc reporter). Description: microbe, parasite or virus in culture. The following applies: Hepatitis C virus, genotype 2a JFH-1 RLuc replicon; read-out: 2a JFH. Put shortly:
as §1

Assay [4] has as its system HCV 2b Rluc cells (NS5A chimeric genotype 2a JFH-1 replicon with genotype 2b MD2b-1 NS5A gene, M31 present). Briefly: microbe, parasite or virus in culture. The following applies: Hepatitis C virus, read-out: 2b. Put shortly: as §1
The test system of assay [5] is HCV 3a RLuc cells (NS5A chimeric genotype 1b Con1 replicon with consensus genotype 3a NS5A gene). Description: microbe, parasite or virus in culture. As to conditions: Hepatitis C virus, read-out: 3a, genotype 3a NS5A chimeric replicon. Put shortly:
as §1

The subject of assay [6] is HCV 4a Rluc cells (NS5A chimeric genotype 1b Con1 replicon with genotype 4a NS5A gene). Briefly: microbe, parasite or virus in culture. As to conditions: Hepatitis C virus, read-out: 4a. Put shortly: as §1
Assay [7] deals with Q30R in genotype 1a NS5A, 1a Rluc replicon transfected into Huh-7 cured-51 cells. Description: HCV replicon assay, resistance mutant 1a Q30R. As to conditions: Hepatitis C virus, Huh-7, read-out: 1a Q30R. Put shortly: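 Q30R introduced into genotype 1a H77 RLuc replicon by site-directed mutagenesis; replicon RNA transfected into Huh-7 cured-51 cells.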
Assay [8] relates to HCV 2a Rluc cells (NS5A chimeric genotype 2a JFH-1 replicon with genotype 2a J6 strain NS5A gene, M31 present). Briefly: HCV replicon reporter assay, genotype 2a J6 (M31 present). The following applies: Hepatitis C virus, read-out: 2a J6. A digest of the protocol: as §1

`COC[C@H]1C[C@@H](c2nc3ccc4cc5c(cc4c3[nH]2)OCc2cc(-c3cnc([C@@H]4CCCN4C(=O)[C@H](NC(=O)OC)c4ccccc4)[nH]3)ccc2-5)N(C(=O)[C@@H](NC(=O)OC)C(C)C)C1` [Example 544]: the EC50 in assay [1] is 0.001 to 0.999 nM; in assay [2], 0.026 nM; in assay [3] it was 0.001 to 0.999 nM; in assay [4], 0.001 to 0.999 nM; in assay [5], 0.001 to 0.99 nM; in assay [6], 0.001 to 0.99 nM. In addition, the EC50 in assay [7] and in assay [8] was 0.001 to 0.999 nM throughout.
Consider `COC[C@H]1C[C@@H](c2nc3ccc4cc(-c5ccc6c(ccc7nc([C@@H]8C[C@H](C)CN8C(=O)[C@@H](NC(=O)OC)C(C)C)[nH]c76)c5)ccc4c3[nH]2)N(C(=O)[C@H](N)c2ccccc2)C1` [Example 545], for which the EC50 in assay [1] is 0.001 to 0.999 nM; in assay [2], 0.075 nM; in assay [3], 0.001 to 0.999 nM; in assay [4], 0.001 to 0.999 nM; in assay [5] it was 0.001 to 0.99 nM; in assay [6], 0.001 to 0.99 nM. For the same compound, the EC50 in assay [7] and in assay [8] was 0.001 to 0.999 nM throughout.
Regarding `COC[C@H]1C[C@@H](c2nc3ccc4cc(-c5ccc6c(ccc7nc([C@@H]8C[C@H](SC)CN8C(=O)[C@@H](NC(=O)OC)C(C)C)[nH]c76)c5)ccc4c3[nH]2)N(C(=O)[C@H](NC(=O)OC)c2ccccc2)C1` [Example 546], the EC50 was 0.001 to 0.999 nM in assay [1]; 0.048 nM in assay [2]; 0.001 to 0.999 nM in assay [3]; 0.001 to 0.999 nM in assay [4]; 0.001 to 0.99 nM in assay [5]; 0.001 to 0.99 nM in assay [6]. Also, the EC50 in assay [7] and in assay [8] was 0.001 to 0.999 nM throughout.
Take `COC[C@H]1C[C@@H](c2nc3ccc4cc(-c5ccc6c(ccc7nc([C@@H]8C[C@H]9C[C@H]9N8C(=O)[C@H](NC(=O)OC)c8ccccc8)[nH]c76)c5)ccc4c3[nH]2)N(C(=O)[C@@H](NC(=O)OC)C(C)C)C1` [Example 548]: the EC50 in assay [1] was 0.001 to 0.999 nM; in assay [2] it was 0.006 nM; in assay [3] it was 0.001 to 0.999 nM; in assay [4] it was 0.001 to 0.999 nM; in assay [5], 0.001 to 0.99 nM; in assay [6] it was 0.001 to 0.99 nM. Further, the EC50 in assay [7] and in assay [8] was 0.001 to 0.999 nM in each case.
As for `COCC(=O)N[C@@H](C(=O)N1C[C@@H](COC)C[C@H]1c1nc2ccc3cc(-c4ccc5c(ccc6nc([C@@H]7C[C@H](C)CN7C(=O)[C@@H](NC(=O)OC)C(C)C)[nH]c65)c4)ccc3c2[nH]1)c1ccccc1` [Example 550], the EC50 was 0.001 to 0.999 nM in assay [1]; 0.013 nM in assay [2]; 0.001 to 0.999 nM in assay [3]; 0.001 to 0.999 nM in assay [4]; 0.001 to 0.99 nM in assay [5]; 0.001 to 0.99 nM in assay [6]. Moreover, the EC50 in assay [7] and in assay [8] was 0.001 to 0.999 nM throughout.
In the case of `CCO[C@H]1C[C@@H](c2nc3ccc4cc5c(cc4c3[nH]2)OCc2cc(-c3cnc([C@@H]4CCCN4C(=O)[C@@H](NC(=O)OC)C(C)C)[nH]3)ccc2-5)N(C(=O)[C@@H](NC(=O)OC)C(C)C)C1` [Example 551], the EC50 in assay [1] is 0.001 to 0.999 nM; in assay [2], 0.018 nM; in assay [3] it was 0.001 to 0.999 nM; in assay [4], 0.001 to 0.999 nM; in assay [5], 0.001 to 0.99 nM; in assay [6], 0.001 to 0.99 nM. The EC50 in assay [7] and in assay [8] was 0.001 to 0.999 nM in each case.
Turning to `CCO[C@H]1C[C@@H](c2nc3ccc4cc5c(cc4c3[nH]2)OCc2cc(-c3cnc([C@@H]4CCCN4C(=O)[C@H](NC(=O)OC)c4ccccc4)[nH]3)ccc2-5)N(C(=O)[C@@H](NC(=O)OC)C(C)C)C1` [Example 552], the EC50 in assay [1] is 0.001 to 0.999 nM; in assay [2], 0.033 nM; in assay [3], 0.001 to 0.999 nM; in assay [4] it was 0.001 to 0.999 nM; in assay [5], 0.001 to 0.99 nM; in assay [6], 0.001 to 0.99 nM. Further, the EC50 in assay [7] and in assay [8] was 0.001 to 0.999 nM each time.
`COC[C@H]1C[C@@H](c2nc3ccc4cc(-c5ccc6c(ccc7nc([C@@H]8CC[C@H](C)N8C(=O)[C@@H](NC(=O)OC)C(C)C)[nH]c76)c5)ccc4c3[nH]2)N(C(=O)[C@H](NC(=O)OC)c2ccccc2)C1` [Example 554]: the EC50 was 0.001 to 0.999 nM in assay [1]; 0.012 nM in assay [2]; 0.001 to 0.999 nM in assay [3]; 0.001 to 0.999 nM in assay [4]; 0.001 to 0.99 nM in assay [5]; 0.001 to 0.99 nM in assay [6]. For the same compound, the EC50 in assay [7] and in assay [8] was 0.001 to 0.999 nM in each case.
Take `COC[C@H]1C[C@@H](c2nc3ccc4cc5c(cc4c3[nH]2)OCc2cc(-c3cnc([C@@H]4C[C@H](C)CN4C(=O)[C@@H](NC(=O)OC)C(C)C)[nH]3)ccc2-5)N(C(=O)[C@H](NC(=O)OC)c2ccccc2)C1` [Example 555]: the EC50 in assay [1] was 0.001 to 0.999 nM; in assay [2], 0.021 nM; in assay [3] it was 0.001 to 0.999 nM; in assay [4] it was 0.001 to 0.999 nM; in assay [5], 0.001 to 0.99 nM; in assay [6], 0.001 to 0.99 nM. The EC50 in assay [7] and in assay [8] was 0.001 to 0.999 nM in each case.
On to `COC[C@H]1C[C@@H](c2nc3ccc4cc(-c5ccc6c(ccc7nc([C@@H]8C[C@H](C)CN8C(=O)[C@@H](NC(=O)OC)C(C)C)[nH]c76)c5)ccc4c3[nH]2)N(C(=O)[C@@H](NC(=O)OC)[C@@H](C)OC)C1` [Example 559], for which the EC50 in assay [1] is 0.001 to 0.999 nM; in assay [2] it was 0.08 nM; in assay [3], 0.001 to 0.999 nM; in assay [4], 0.001 to 0.999 nM; in assay [5] it was 0.001 to 0.99 nM; in assay [6], 0.001 to 0.99 nM. The EC50 in assay [7] and in assay [8] was 0.001 to 0.999 nM each time.
Regarding `COC[C@H]1C[C@@H](c2nc3ccc4cc(-c5ccc6c(ccc7nc([C@@H]8C[C@H](C)CN8C(=O)[C@@H](NC(=O)OC)C(C)C)[nH]c76)c5)ccc4c3[nH]2)N(C(=O)[C@@H](NC(=O)OC)C2CCOCC2)C1` [Example 560], the EC50 in assay [1] was 0.001 to 0.999 nM; in assay [2], 0.092 nM; in assay [3], 0.001 to 0.999 nM; in assay [4] it was 0.001 to 0.999 nM; in assay [5] it was 0.001 to 0.99 nM; in assay [6], 0.001 to 0.99 nM. The EC50 in assay [7] and in assay [8] was 0.001 to 0.999 nM throughout.
With `COC[C@H]1C[C@@H](c2nc3ccc4cc5c(cc4c3[nH]2)OCc2cc(-c3cnc([C@@H]4CC[C@H](C)N4C(=O)[C@@H](NC(=O)OC)C(C)C)[nH]3)ccc2-5)N(C(=O)[C@@H](NC(=O)OC)C(C)C)C1` [Example 561], the EC50 was 0.001 to 0.999 nM in assay [1]; 0.01 nM in assay [2]; 0.001 to 0.999 nM in assay [3]; 0.001 to 0.999 nM in assay [4]; 0.001 to 0.99 nM in assay [5]; 0.001 to 0.99 nM in assay [6]. For the same compound, the EC50 in assay [7] and in assay [8] was 0.001 to 0.999 nM throughout.
As for `COC[C@H]1C[C@@H](c2nc3ccc4cc5c(cc4c3[nH]2)OCc2cc(-c3cnc([C@@H]4C[C@H](C)CN4C(=O)[C@@H](NC(=O)OC)C(C)C)[nH]3)ccc2-5)N(C(=O)[C@@H](NC(=O)OC)C(C)C)C1` [Example 562], the EC50 is 0.001 to 0.999 nM in assay [1]; 0.019 nM in assay [2]; 0.001 to 0.999 nM in assay [3]; 0.001 to 0.999 nM in assay [4]; 0.001 to 0.99 nM in assay [5]; 0.001 to 0.99 nM in assay [6]. Also, the EC50 in assay [7] and in assay [8] was 0.001 to 0.999 nM in each case.
Take `COC(=O)N[C@H](C(=O)N1C[C@@H](C)C[C@H]1c1nc2ccc3cc4c(cc3c2[nH]1)OCc1cc(-c2cnc([C@@H]3CCCN3C(=O)[C@H](NC(=O)OC)c3ccccc3)[nH]2)ccc1-4)C(C)C` [Example 565]: the EC50 was 0.001 to 0.999 nM in assay [1]; 0.017 nM in assay [2]; 0.001 to 0.999 nM in assay [3]; 0.001 to 0.999 nM in assay [4]; 0.001 to 0.99 nM in assay [5]; 0.001 to 0.99 nM in assay [6]. The EC50 in assay [7] and in assay [8] was 0.001 to 0.999 nM in each case.
For `COC(=O)N[C@H](C(=O)N1C[C@@H](C)C[C@H]1c1nc2ccc3cc4c(cc3c2[nH]1)OCc1cc(-c2cnc([C@@H]3CC[C@H](C)N3C(=O)[C@@H](NC(=O)OC)C(C)C)[nH]2)ccc1-4)C(C)C` [Example 566], the EC50 in assay [1] was 0.001 to 0.999 nM; in assay [2], 0.009 nM; in assay [3] it was 0.001 to 0.999 nM; in assay [4], 0.001 to 0.999 nM; in assay [5], 0.001 to 0.99 nM; in assay [6] it was 0.001 to 0.99 nM. In addition, the EC50 in assay [7] and in assay [8] was 0.001 to 0.999 nM each time.

Source of the values: patent publication US10344019B2 (priority 2010, dated 2019).
